Measured values published in patent US9347934B2, “Assays for identifying compounds that modulate bitter taste” (CHROMOCELL CORPORATION, priority 2011, dated 2016).

How the values were obtained:
Type in all cases: cell-based
TAS2R1 = target: T1, TAS2R1 (Homo sapiens, UniProt Q9NYW7); experiment: Calcium fluorescence functional assay, TAS2R1 cell line; settings: 20 mM tastant; cell line expressing human TAS2R1 and mouse Gα15
T1 construct: expressed in transfected cells
T1 sequence (Q9NYW7 1-299): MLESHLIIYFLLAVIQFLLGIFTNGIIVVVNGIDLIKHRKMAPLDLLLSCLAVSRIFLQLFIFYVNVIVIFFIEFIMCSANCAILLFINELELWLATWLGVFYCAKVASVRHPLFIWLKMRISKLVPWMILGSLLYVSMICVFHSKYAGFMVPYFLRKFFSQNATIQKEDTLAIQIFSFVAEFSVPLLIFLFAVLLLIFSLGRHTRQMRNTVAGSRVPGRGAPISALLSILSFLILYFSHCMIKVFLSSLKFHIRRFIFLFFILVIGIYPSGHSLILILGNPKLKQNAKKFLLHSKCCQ
Protocol: (§1) Accordingly, each cell line of the panel expressed a human bitter taste receptor and mouse Gα15 signaling protein.
(§2) Probenecid was not included in the load solution.
(§3) After dye loading, cell plates were placed in a fluorescent plate reader (e.g., FDSS6000 (Hamamatsu, Japan)) and receptor stimulation was measured by adding 50 ul of 3× concentrated ligand/agonist stock. Fluorescence was monitored continuously for 10 s before agonist addition and for 100-250 s after stimulation with agonist.
(§4) Receptor Activation is defined as follows: % Activation=[((Maximum signal fluorescence−Minimum signal fluorescence)−(Maximum control fluorescence−Minimum control fluorescence))/(Maximum buffer fluorescence−Minimum buffer fluorescence)]*100 Functional Response=[(Maximum signal fluorescence−Minimum signal fluorescence)−(Maximum control fluorescence−Minimum control fluorescence)] • Signal Fluorescence: refers to the change in fluorescence seen with addition of ligand • Control fluorescence: refers to the change in fluorescence seen with addition of buffer (negative control) • Calcium signals from ligand and control were normalized to the basal fluorescence of the cells prior to the stimulation.
(§5) A concentration analysis was performed and EC50 values were calculated by nonlinear regression using the formula: Y=Bottom+(Top-Bottom)/(1+10^((Log EC50-X)*Hill Slope)), X=log of dose or concentration, Y=Response (increasing as X increases), Top=maximum signal, Bottom=minimum signal.

TAS2R4 = target: T2, TAS2R4 (Homo sapiens, UniProt Q9NYW5); experiment: Calcium fluorescence functional assay, TAS2R4 cell line; settings: for TAS2R4 bitter taste receptor activity (changes in intracellular calcium): 20 mM tastant, cell line expressing human TAS2R4 and mouse Gα15
T2 construct: expressed in transfected cells
T2 sequence (Q9NYW5 1-299): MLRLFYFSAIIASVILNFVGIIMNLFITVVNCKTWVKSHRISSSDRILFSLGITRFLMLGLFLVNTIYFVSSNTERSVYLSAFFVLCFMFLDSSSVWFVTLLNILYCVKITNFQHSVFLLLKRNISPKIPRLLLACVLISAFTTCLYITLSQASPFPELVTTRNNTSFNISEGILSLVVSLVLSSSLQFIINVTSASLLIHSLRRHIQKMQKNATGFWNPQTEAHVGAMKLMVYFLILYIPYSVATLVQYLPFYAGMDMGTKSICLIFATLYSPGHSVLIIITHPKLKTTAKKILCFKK
Protocol: as §1, §2, §3, §4, §5

TAS2R8 = target: T3, TAS2R8 (Homo sapiens, UniProt Q9NYW2); experiment: Calcium fluorescence functional assay, TAS2R8 cell line; settings: 20 mM tastant; cell line expressing human TAS2R8 and mouse Gα15
T3 construct: expressed in transfected cells
T3 sequence (Q9NYW2 1-309): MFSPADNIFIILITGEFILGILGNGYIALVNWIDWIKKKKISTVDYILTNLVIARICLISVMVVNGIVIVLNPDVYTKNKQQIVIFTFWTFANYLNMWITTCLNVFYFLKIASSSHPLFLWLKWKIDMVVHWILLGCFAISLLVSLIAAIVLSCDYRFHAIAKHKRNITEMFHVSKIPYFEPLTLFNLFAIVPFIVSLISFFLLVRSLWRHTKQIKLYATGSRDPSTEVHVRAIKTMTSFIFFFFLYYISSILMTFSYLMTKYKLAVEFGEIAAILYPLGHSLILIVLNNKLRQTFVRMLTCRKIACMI
Protocol: as §1, §2, §3, §4, §5

TAS2R14 = target: T4, TAS2R14 (Homo sapiens, UniProt Q9NYV8); experiment: Calcium fluorescence functional assay, TAS2R14 cell line; settings: for TAS2R14 bitter taste receptor activity (changes in intracellular calcium): 20 mM tastant, cell line expressing human TAS2R14 and mouse Gα15
T4 construct: expressed in transfected cells
T4 sequence (Q9NYV8 1-317): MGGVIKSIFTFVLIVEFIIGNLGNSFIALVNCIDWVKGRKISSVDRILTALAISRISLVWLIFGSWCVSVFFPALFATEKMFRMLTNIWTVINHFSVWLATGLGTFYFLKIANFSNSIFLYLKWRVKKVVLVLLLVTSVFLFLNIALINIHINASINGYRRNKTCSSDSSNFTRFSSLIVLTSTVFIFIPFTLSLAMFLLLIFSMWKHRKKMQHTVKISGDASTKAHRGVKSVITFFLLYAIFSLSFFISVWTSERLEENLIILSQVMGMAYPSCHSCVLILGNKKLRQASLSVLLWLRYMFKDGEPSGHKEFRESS
Protocol: as §1, §2, §3, §4, §5

TAS2R40 = target: T5, TAS2R40 (Homo sapiens, UniProt P59535); experiment: Calcium fluorescence functional assay, TAS2R40 cell line; settings: 20 mM tastant; cell line expressing human TAS2R40 and mouse Gα15
T5 construct: expressed in transfected cells
T5 sequence (P59535 whole entry): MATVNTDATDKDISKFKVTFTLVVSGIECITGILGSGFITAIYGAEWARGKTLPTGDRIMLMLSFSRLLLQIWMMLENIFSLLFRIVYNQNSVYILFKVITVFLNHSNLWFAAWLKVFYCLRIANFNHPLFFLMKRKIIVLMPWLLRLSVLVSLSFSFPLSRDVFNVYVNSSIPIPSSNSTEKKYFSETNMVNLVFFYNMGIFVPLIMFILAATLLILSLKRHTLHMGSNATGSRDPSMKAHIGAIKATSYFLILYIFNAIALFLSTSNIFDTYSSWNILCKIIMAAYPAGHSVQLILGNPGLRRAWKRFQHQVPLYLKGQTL
Protocol: as §1, §2, §3, §4, §5

TAS2R43 = target: T6, TAS2R43 (Homo sapiens, UniProt P59537); experiment: Calcium fluorescence functional assay, TAS2R43 cell line; settings: 20 mM tastant; cell line expressing human TAS2R43 and mouse Gα15
T6 construct: expressed in transfected cells
T6 sequence (P59537 1-309): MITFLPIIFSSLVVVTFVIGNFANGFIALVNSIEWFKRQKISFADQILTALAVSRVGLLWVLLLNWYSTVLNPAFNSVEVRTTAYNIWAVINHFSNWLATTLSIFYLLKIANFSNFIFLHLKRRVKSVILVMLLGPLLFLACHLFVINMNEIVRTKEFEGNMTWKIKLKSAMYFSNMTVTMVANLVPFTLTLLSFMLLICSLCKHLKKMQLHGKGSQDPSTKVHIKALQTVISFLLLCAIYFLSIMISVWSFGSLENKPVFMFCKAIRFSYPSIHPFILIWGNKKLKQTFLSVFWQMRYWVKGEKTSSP
Protocol: as §1, §2, §3, §4, §5

TAS2R47 = target: T7, TAS2R47 (Homo sapiens, UniProt P59541); experiment: Calcium fluorescence functional assay, TAS2R47 cell line; settings: 20 mM tastant; cell line expressing human TAS2R47 and mouse Gα15
T7 construct: expressed in transfected cells
T7 sequence (P59541 1-319): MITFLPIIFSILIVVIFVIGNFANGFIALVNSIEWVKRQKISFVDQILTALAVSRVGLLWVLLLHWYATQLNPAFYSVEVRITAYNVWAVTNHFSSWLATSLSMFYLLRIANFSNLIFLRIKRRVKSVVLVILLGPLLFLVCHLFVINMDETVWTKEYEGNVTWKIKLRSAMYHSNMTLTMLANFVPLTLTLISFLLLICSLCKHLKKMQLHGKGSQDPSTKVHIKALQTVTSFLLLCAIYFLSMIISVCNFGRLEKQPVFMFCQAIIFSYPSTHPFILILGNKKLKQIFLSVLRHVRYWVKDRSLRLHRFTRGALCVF
Protocol: as §1, §2, §3, §4, §5

| SMILES | TAS2R1 bitter taste receptor activity (changes in intracellular calcium) (TAS2R1) | TAS2R4 bitter taste receptor activity (changes in intracellular calcium) (TAS2R4) | TAS2R8 bitter taste receptor activity (changes in intracellular calcium) (TAS2R8) | TAS2R14 bitter taste receptor activity (changes in intracellular calcium) (TAS2R14) | TAS2R40 bitter taste receptor activity (changes in intracellular calcium) (TAS2R40) | TAS2R43 bitter taste receptor activity (changes in intracellular calcium) (TAS2R43) | TAS2R47 bitter taste receptor activity (changes in intracellular calcium) (TAS2R47) | EC50 (TAS2R4; increasing concentrations of KCl, TAS2R4 cell line (FIG. 3), read-out: EC50 value, activation of TAS2R4) [mM] | EC50 (TAS2R14; increasing concentrations of KCl, TAS2R14 cell line (FIG. 3), read-out: EC50 value, activation of TAS2R14) [mM] |
| --- | --- | --- | --- | --- | --- | --- | --- | --- | --- |
| CC(O)C(=O)[O-].[K+] (centres unmarked) [Potassium lactate, potassium lactate] | did not induce | induced | did not induce | induced | did not induce | did not induce | did not induce |  |  |
| [Cl-].[K+] [KCl, potassium chloride] | did not induce | induced | did not induce | induced | did not induce | did not induce | did not induce | 5 to 15 | 5 to 15 |
| CC1=CC(=O)NS(=O)(=O)O1 [Acesulfame K] | induced | induced | did not induce | induced | did not induce | did not induce | did not induce |  |  |
